Earlier results, collected in patent US6297235A, “Triazolopyridazine derivatives for treating anxiety and enhancing cognition” (Merck Sharp & Dohme Ltd., priority 1997, dated 2001).

Legend:
[1] = in vivo
[2] = reported by McNamara and Skelton, Psychobiology, 21:101-108

COC(=O)c1cc2c(cn1)[nH]c1ccccc12 [β-CCM]
proconvulsant or convulsant effect [1]: proconvulsant or convulsant
spatial learning in the Morris watermaze [2]: enhanced spatial learning
